Results: US7220743B2, “Heterocyclic CB1 receptor antagonists” (Hoffmann-La Roche Inc., priority 2005, dated 2007)

Biological target: T1, cannabinoid CB1 receptors (Homo sapiens, UniProt P21554)
T1 construct: expressed in transfected cells; host or cells: HEK cells, transient, Semliki Forest Virus system; membrane preparation
Experiment: Affinity for cannabinoid CB1 receptors, [3H]-CP-55,940 radioligand binding on HEK cell membranes
Details: CB1 receptor affinity, [3H]-CP-55,940, HEK membranes
Experimental: The affinity of the compounds of the invention for cannabinoid CB1 receptors was determined using membrane preparations of human embryonic kidney (HEK) cells in which the human cannabis […] receptor is transiently transfected using the Semliki Forest Virus system in conjunction with [3H]-CP-55,940 as radioligand. After incubation of a freshly prepared cell membrane preparation with the [3H]-ligand, with or without addition of compounds of the invention, separation of bound and free ligand was performed by filtration over glassfiber filters. Radioactivity on the filter was measured by liquid scintillation counting.

T1 sequence (P21554 whole entry): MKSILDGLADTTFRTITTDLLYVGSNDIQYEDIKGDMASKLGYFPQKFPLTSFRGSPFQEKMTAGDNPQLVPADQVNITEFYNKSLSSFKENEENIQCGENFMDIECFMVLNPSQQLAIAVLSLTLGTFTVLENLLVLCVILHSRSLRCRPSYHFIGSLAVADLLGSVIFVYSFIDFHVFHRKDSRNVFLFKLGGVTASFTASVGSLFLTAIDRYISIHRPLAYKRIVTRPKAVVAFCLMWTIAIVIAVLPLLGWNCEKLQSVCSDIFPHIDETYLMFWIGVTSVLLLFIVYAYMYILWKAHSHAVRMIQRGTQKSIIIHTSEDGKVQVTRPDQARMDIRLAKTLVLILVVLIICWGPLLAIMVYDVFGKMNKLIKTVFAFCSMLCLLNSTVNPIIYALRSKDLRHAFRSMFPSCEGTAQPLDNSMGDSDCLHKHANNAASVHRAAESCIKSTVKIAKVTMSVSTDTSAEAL

IC50: 6 nM
Compound: O=C(c1cc2c(cc1F)OC1(O2)c2ccccc2C=Cc2ccccc21)N1CCOCC1 [Example 3, 4-[(6-fluoro-spiro[1,3-benzodioxole-2,5′-[5H]dibenzo[a,d]cyclohepten]-5-yl)carbonyl]-morpholine]
